Biological target: T1, human OX2 receptor (Homo sapiens, UniProt O43614)
T1 construct: expressed in transfected cells
T1 sequence (O43614 1-444): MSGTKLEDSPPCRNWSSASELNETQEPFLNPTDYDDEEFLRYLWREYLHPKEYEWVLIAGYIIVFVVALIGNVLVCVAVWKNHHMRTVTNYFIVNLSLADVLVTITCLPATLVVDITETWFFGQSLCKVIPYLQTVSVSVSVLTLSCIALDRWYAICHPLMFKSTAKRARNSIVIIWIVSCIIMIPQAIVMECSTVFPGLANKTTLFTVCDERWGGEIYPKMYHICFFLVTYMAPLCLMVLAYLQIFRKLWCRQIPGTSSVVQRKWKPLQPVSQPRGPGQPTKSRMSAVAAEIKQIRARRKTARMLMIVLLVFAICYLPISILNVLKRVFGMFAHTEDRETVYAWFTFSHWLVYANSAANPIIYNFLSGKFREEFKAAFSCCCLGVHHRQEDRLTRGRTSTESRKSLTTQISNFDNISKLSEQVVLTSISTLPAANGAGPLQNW
Assay: Measurement of orexin type 2 receptor agonist activity (calcium fluorescence, Fluo-4, FDSS)
Type: cell-based
Conditions: 3 uM test compound; CHO cells expressing human OX2 receptor; DMSO = 0%, 10 nM orexin A (human) = 100%
Summary of the method: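 Agonist activity (%) was normalised to the response to 10 nM final human orexin A (100%) and to the DMSO vehicle (0%). The response was measured as the Fluo-4 calcium signal, read kinetically over 1 min 40 s after compound addition to Fluo-4/probenecid-loaded stable CHO-K1 clones expressing human OX2 (aa 1-444).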

SMILES	OX2R agonist activity (3 uM, %) [%]
CS(=O)(=O)N[C@@H]1Cn2c(cn(-c3noc4cc(F)cc(-c5c(F)cc(F)cc5F)c34)c2=O)C1(F)F [Example 108, N-{(6R)-7,7-difluoro-2-[6-fluoro-4-(2,4,6-trifluorophenyl)-1,2-benzoxazol-3-yl]-3-oxo-2,5,6,7-tetrahydro-3H-pyrrolo[1,2-c]imidazol-6-yl}methanesulfonamide]	109
COCc1cc(-c2c(F)cc(F)cc2F)c2c(-n3cc4n(c3=O)C[C@@H](NS(C)(=O)=O)C4(F)F)noc2c1 [Example 111, N-{(6R)-7,7-difluoro-2-[6-(methoxymethyl)-4-(2,4,6-trifluorophenyl)-1,2-benzoxazol-3-yl]-3-oxo-2,5,6,7-tetrahydro-3H-pyrrolo[1,2-c]imidazol-6-yl}methanesulfonamide]	90
CCS(=O)(=O)N[C@@H]1Cn2c(cn(-c3noc4nc(C)cc(-c5c(F)cccc5F)c34)c2=O)C1(F)F [Example 112, N-{(6R)-2-[4-(2,6-difluorophenyl)-6-methyl[1,2]oxazolo[5,4-b]pyridin-3-yl]-7,7-difluoro-3-oxo-2,5,6,7-tetrahydro-3H-pyrrolo[1,2-c]imidazol-6-yl}ethanesulfonamide]	99
CS(=O)(=O)N[C@@H]1Cn2c(cn(-c3noc4cc(OC(F)F)cc(-c5c(F)cc(F)cc5F)c34)c2=O)C1(F)F [Example 113, N-{(6R)-2-[6-(difluoromethoxy)-4-(2,4,6-trifluorophenyl)-1,2-benzoxazol-3-yl]-7,7-difluoro-3-oxo-2,5,6,7-tetrahydro-3H-pyrrolo[1,2-c]imidazol-6-yl}methanesulfonamide]	102
CCS(=O)(=O)N[C@@H]1Cn2c(cn(-c3noc4cc(F)cc(-c5c(F)cc(F)cc5F)c34)c2=O)C1(F)F [Example 116, N-{(6R)-7,7-difluoro-2-[6-fluoro-4-(2,4,6-trifluorophenyl)-1,2-benzoxazol-3-yl]-3-oxo-2,5,6,7-tetrahydro-3H-pyrrolo[1,2-c]imidazol-6-yl}ethanesulfonamide]	93
Cc1cc(-c2c(F)cccc2F)c2c(-n3cc4n(c3=O)C[C@@H](NS(C)(=O)=O)C4(F)F)noc2n1 [Example 118, N-{(6R)-2-[4-(2,6-difluorophenyl)-6-methyl[1,2]oxazolo[5,4-b]pyridin-3-yl]-7,7-difluoro-3-oxo-2,5,6,7-tetrahydro-3H-pyrrolo[1,2-c]imidazol-6-yl}methanesulfonamide]	91
Cc1cc2onc(N3C[C@H]4N(C[C@@H](NS(C)(=O)=O)C4(F)F)C3=O)c2c(-c2c(F)cc(F)cc2F)c1F [Example 119, N-{(6R,7aR)-7,7-difluoro-2-[5-fluoro-6-methyl-4-(2,4,6-trifluorophenyl)-1,2-benzoxazol-3-yl]-3-oxohexahydro-1H-pyrrolo[1,2-c]imidazol-6-yl}methanesulfonamide]	105
CCS(=O)(=O)N[C@@H]1Cn2c(cn(-c3noc4cc(F)c(F)c(-c5c(F)cc(F)cc5F)c34)c2=O)C1(F)F [Example 121, N-{(6R)-2-[5,6-difluoro-4-(2,4,6-trifluorophenyl)-1,2-benzoxazol-3-yl]-7,7-difluoro-3-oxo-2,5,6,7-tetrahydro-3H-pyrrolo[1,2-c]imidazol-6-yl}ethanesulfonamide]	93
CCS(=O)(=O)N[C@@H]1CN2C(=O)N(c3noc4cc(F)cc(-c5c(F)cc(F)cc5F)c34)C[C@@H]2C1(F)F [Example 124, N-{(6R,7aR)-7,7-Difluoro-2-[6-fluoro-4-(2,4,6-trifluorophenyl)-1,2-benzoxazol-3-yl]-3-oxohexahydro-1H-pyrrolo[1,2-c]imidazol-6-yl}ethanesulfonamide]	101
Cc1cc(-c2c(F)cccc2F)c2c(N3C[C@H]4N(C[C@@H](NS(C)(=O)=O)C4(F)F)C3=O)noc2c1 [Example 126, N-{(6R,7aR)-2-[4-(2,6-Difluorophenyl)-6-methyl-1,2-benzoxazol-3-yl]-7,7-difluoro-3-oxohexahydro-1H-pyrrolo[1,2-c]imidazol-6-yl}methanesulfonamide]	97
Cc1cc(-c2c(F)cc(F)cc2F)c2c(-n3cc4n(c3=O)C[C@@H](NS(C)(=O)=O)C4(F)F)noc2c1 [Example 127, N-{(6R)-7,7-difluoro-2-[6-methyl-4-(2,4,6-trifluorophenyl)-1,2-benzoxazol-3-yl]-3-oxo-2,5,6,7-tetrahydro-3H-pyrrolo[1,2-c]imidazol-6-yl}methanesulfonamide]	102
CS(=O)(=O)N[C@@H]1Cn2c(cn(-c3noc4cc(CO)cc(-c5c(F)cc(F)cc5F)c34)c2=O)C1(F)F [Example 128, N-{(6R)-7,7-difluoro-2-[6-(hydroxymethyl)-4-(2,4,6-trifluorophenyl)-1,2-benzoxazol-3-yl]-3-oxo-2,5,6,7-tetrahydro-3H-pyrrolo[1,2-c]imidazol-6-yl}methanesulfonamide]	98
CS(=O)(=O)N[C@@H]1Cn2c(cn(-c3noc4cc(C(F)(F)F)cc(-c5c(F)cc(F)cc5F)c34)c2=O)C1(F)F [Example 130, N-{(6R)-7,7-difluoro-3-oxo-2-[6-(trifluoromethyl)-4-(2,4,6-trifluorophenyl)-1,2-benzoxazol-3-yl]-2,5,6,7-tetrahydro-3H-pyrrolo[1,2-c]imidazol-6-yl}methanesulfonamide]	99
COCc1cc(-c2c(F)cccc2F)c2c(-n3cc4n(c3=O)C[C@@H](NS(C)(=O)=O)C4(F)F)noc2c1 [Example 132, N-{(6R)-2-[4-(2,6-difluorophenyl)-6-(methoxymethyl)-1,2-benzoxazol-3-yl]-7,7-difluoro-3-oxo-2,5,6,7-tetrahydro-3H-pyrrolo[1,2-c]imidazol-6-yl}methanesulfonamide]	94
CS(=O)(=O)N[C@@H]1Cn2c(cn(-c3noc4cc(F)c(F)c(-c5c(F)cc(F)cc5F)c34)c2=O)C1(F)F [Example 135, N-{(6R)-2-[5,6-difluoro-4-(2,4,6-trifluorophenyl)-1,2-benzoxazol-3-yl]-7,7-difluoro-3-oxo-2,5,6,7-tetrahydro-3H-pyrrolo[1,2-c]imidazol-6-yl}methanesulfonamide]	100
CS(=O)(=O)N[C@@H]1Cn2c(cn(-c3noc4cc(C(F)F)cc(-c5c(F)cccc5F)c34)c2=O)C1(F)F [Example 136, N-{(6R)-2-[6-(difluoromethyl)-4-(2,6-difluorophenyl)-1,2-benzoxazol-3-yl]-7,7-difluoro-3-oxo-2,5,6,7-tetrahydro-3H-pyrrolo[1,2-c]imidazol-6-yl}methanesulfonamide]	99
CNS(=O)(=O)N[C@@H]1Cn2c(cn(-c3noc4cc(F)cc(-c5c(F)cc(F)cc5F)c34)c2=O)C1(F)F [Example 139, N-{(6R)-7,7-difluoro-2-[6-fluoro-4-(2,4,6-trifluorophenyl)-1,2-benzoxazol-3-yl]-3-oxo-2,5,6,7-tetrahydro-3H-pyrrolo[1,2-c]imidazol-6-yl}-N′-methylsulfuric diamide]	101
Cc1cc(-c2c(F)cc(F)cc2F)c2c(N3C[C@H]4N(C[C@@H](NS(C)(=O)=O)C4(F)F)C3=O)noc2c1 [Example 140, N-{(6R,7aR)-7,7-difluoro-2-[6-methyl-4-(2,4,6-trifluorophenyl)-1,2-benzoxazol-3-yl]-3-oxohexahydro-1H-pyrrolo[1,2-c]imidazol-6-yl}methanesulfonamide]	100
CS(=O)(=O)N[C@@H]1Cn2c(cn(-c3noc4cc(C(F)F)cc(-c5c(F)cc(F)cc5F)c34)c2=O)C1(F)F [Example 141, N-{(6R)-2-[6-(difluoromethyl)-4-(2,4,6-trifluorophenyl)-1,2-benzoxazol-3-yl]-7,7-difluoro-3-oxo-2,5,6,7-tetrahydro-3H-pyrrolo[1,2-c]imidazol-6-yl}methanesulfonamide]	94
CNS(=O)(=O)N[C@@H]1CN2C(=O)N(c3noc4cc(F)cc(-c5c(F)cc(F)cc5F)c34)C[C@@H]2C1(F)F [Example 144, N-{(6R,7aR)-7,7-Difluoro-2-[6-fluoro-4-(2,4,6-trifluorophenyl)-1,2-benzoxazol-3-yl]-3-oxohexahydro-1H-pyrrolo[1,2-c]imidazol-6-yl}-N′-methylsulfuric diamide]	102
CCOc1cc(-c2c(F)cccc2F)c2c(N3C[C@H]4N(C[C@@H](NS(C)(=O)=O)C4(F)F)C3=O)noc2c1 [Example 145, N-{(6R,7aR)-2-[4-(2,6-difluorophenyl)-6-ethoxy-1,2-benzoxazol-3-yl]-7,7-difluoro-3-oxohexahydro-1H-pyrrolo[1,2-c]imidazol-6-yl}methanesulfonamide]	105
CCS(=O)(=O)N[C@H]1Cc2cn(-c3nsc4nc(C)cc(-c5c(F)cccc5F)c34)c(=O)n2C1 [Example 152, N-{(6S)-2-[4-(2,6-difluorophenyl)-6-methyl[1,2]thiazolo[5,4-b]pyridin-3-yl]-3-oxo-2,5,6,7-tetrahydro-3H-pyrrolo[1,2-c]imidazol-6-yl}ethanesulfonamide]	92

From patent publication US11987586B1 (TAKEDA PHARMACEUTICAL COMPANY LIMITED, priority 2022, dated 2024)
